Laboratory results as given in patent publication US12570988B2, “Aptamers that bind thiamine analogs and derivatives” (MeiraGTx Gene Regulation Limited, priority 2020, dated 2026).

Key:
riboswitch 15D10 [1] = test: Luciferase reporter with 15D10 riboswitch (Luci-15D10) in HEK 293 cells; type: cell-based, human; details: HEK 293 cells; for effect on luciferase expression from Luci-15D10: FIG. 9A, 9C; for fold induction at 50 µM: Homo sapiens, HEK293, 24 h, Table 2, read-out: Fold increase in riboswitch 15D10-regulated luciferase expression, HEK
Method in brief: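 Cells transfected with riboswitch-luciferase plasmid; 4 h later medium replaced with TPP or thiamine analogs (fursultiamine, prosultiamine, bisbentiamine, beclotiamine, sulbutiamine) as inducers.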

riboswitch 15D10 [2] = test: Luciferase reporter with 15D10 riboswitch (Luci-15D10) in AML12 cells; type: cell-based, mouse; details: for relative potency in inducing luciferase expression: AML 12 cells, compared with fursultiamine or within groups; for fold induction at 50 µM: Mus musculus, AML12, 24 h, Table 2, read-out: Fold increase in riboswitch 15D10-regulated luciferase expression, AML; for fold induction at 50 µM / luciferase regulation in response to ligand, riboswitch 15D10: AML12 cells; for luciferase regulation in response to ligand, riboswitch 15D10: FIG. 6B
riboswitch 15D10 [3] = test: Luci-15D10 luciferase reporter in ARPE-19 cells; type: cell-based, human; details: FIG. 9E
[4] = test system: riboswitch TPPz (A. tabrizica thiC TPP aptamer); test: Luciferase reporter with TPPz riboswitch in HEK 293 cells; type: cell-based, human; details: FIG. 1
Source text: (§1) Riboswitch constructs: Aptamers were synthesized by Integrated DNA Technologies, Inc. and Golden Gate cloning strategy (New England Biolabs, NEB) was used to clone the synthesized aptamer sequences into intron-exon-intron cassette to replace the guanine aptamer in the G17 riboswitch cassette (see SEQ ID NO: 15 recited in WO 2016/126747, which is incorporated herein in its entirety) with a TPP aptamer from the Alishewanella tabrizica thiC gene (Microbiol Res. 2017 January; 195:71-80) or a TPP aptamer from the Escherichia coli thiM gene (Structure. 2006 September; 14(9):1459-68), generating riboswitch TPPz and TPPm, respectively.
(§2) Transfection: 3.5×10^4 human embryonic kidney (HEK) 293 cells were plated in a 96-well flat bottom plate the day before transfection. Plasmid DNA (500 ng) was added to a tube or a 96-well U-bottom plate. Separately, TransIT-293 reagent (Mirus; 1.4 μL) was added to 50 μL Optimem I media (Life Technologies) and allowed to sit for 5 minutes at room temperature (RT). Then, 50 μL of this diluted transfection reagent was added to the DNA, mixed, and incubated at RT for 20 min. Finally, 7 μL of this solution was added to a well of cells in the 96-well plate. Four hours after transfection, medium containing transfection solution was replaced by medium containing either TPP, fursultiamine, prosultiamine, bisbentiamine, beclotiamine hydrochloride, or sulbutiamine as aptamer inducers.
(§3) Firefly luciferase assay of cultured cells: Twenty-four hours after media change, plates were removed from the incubator, and equilibrated to RT for several minutes on a lab bench, then aspirated. Glo-lysis buffer (Promega, 100 μL, RT) was added, and the plates allowed to remain at RT for at least 5 minutes. Then, the well contents were mixed by 50 μL trituration, and 20 μL of each sample was mixed with 20 μL of bright-glo reagent (Promega) that had been diluted to 10% in glo-lysis buffer. 96 wells were spaced on an opaque white 384-well plate. Following a 5 min incubation at RT, luminescence was measured using a Tecan machine with 500 ms read time. The luciferase activity was expressed as mean arbitrary light units (ALU)±S.D., and fold induction was calculated as the quotient of the luciferase activity obtained from cells with TPP or analog treatment divided by the luciferase activity obtained from cells without TPP or analog treatment.

[5] = test system: riboswitch TPPm (E. coli thiM TPP aptamer); test: Luciferase reporter with TPPm riboswitch in HEK 293 cells; type: cell-based, human; details: FIG. 1
Source text: as §1, §2, §3

[6] = test system: riboswitch comprising aptamer 15A5; test: Luciferase reporter with 15A5 riboswitch in AML12 cells; type: cell-based, mouse; details: FIG. 6B
riboswitch 3H4 = test: In vivo bioluminescence imaging, mice given AAV luci-3H4; parameters: species or system Balb/c mice
Source text: (§4) AAV2.8 viral particle production: The AAV2.8 particles used for the transfection of mice comprised a viral genome derived from AAV2 and a capsid derived from AAV8. The luciferase gene containing an intron-exon-intron cassette with (1) a non-regulatable riboswitch without aptamer (“luci-Con1”, SEQ ID NO:90), (2) a riboswitch cassette comprising aptamer 3H4 (“luci-3H4”, SEQ ID NO:91), or (3) a riboswitch cassette comprising aptamer 6B4 (“luci-6B4”, SEQ ID NO:92), respectively, was cloned into an AAV2 plasmid vector. Expression of the luciferase gene was controlled by a CASI promoter, which includes CMV and ubiquitin C enhancer elements and the chicken β-actin promoter. The viral vector was packaged into AAV8 capsid and produced following manufacture's protocol (Vigene Biosciences).
(§5) Animal study: Male Balb/c mice received a single tail vein injection of 1.0×10^11 or 2.5×10^11 genome copies of the receptive AAV2.8 viral particle. Twenty-eight days after AAV vector delivery, mice were treated intraperitoneally (IP.) with 50 mg/kg prosultiamine. Luciferase activity was measured the day prior to drug dosing, as well as 6 h, 24 h, 48 h and 72 h after drug dosing. After the first administration of prosultiamine, the mice were subjected to three additional rounds of dosing and imaging cycles as follows: Day 36 (after AAV administration):100 mg/kg; day 43: 200 mg/kg; and day 51: 400 mg/kg.
(§6) Noninvasive live animal bioluminescence imaging: Before imaging, mice were anesthetized with 2% isoflurane, and injected with 150 mg/kg body weight of luciferin. At the indicated time point post drug dosing, images were taken within 2 to 5 minutes after luciferin injection using a Bruker Xtreme system. Luciferase activity was expressed as mean photon/s±S.D. (n=5). The fold induction of luciferase gene expression was calculated as the quotient of photon/s obtained from mice treated with prosultiamine divided by the value obtained from mice the day before prosultiamine treatment.

riboswitch 6B4 = test: In vivo bioluminescence imaging, mice given AAV luci-6B4; parameters: species or system Balb/c mice
Source text: as §4, §5, §6

[7] = test system: luciferase expression in HEK 293 cells; test: Screen of aptamer libraries A1-A3 for gene regulation activity with fursultiamine; type: cell-based, human; details: 50 μM fursultiamine, FIG. 4A
Protocol: Three aptamer libraries A1, A2 and A3, were generated by randomizing nucleotides at 6 positions in, or adjacent to, regions J4-5, J2-4 and J3-2, respectively (see FIG. 3). Single bacterial colonies were picked and plasmids containing riboswitch constructs were screened in HEK 293 cells for improved gene regulation activity in response to 50 μM fursultiamine as compared to riboswitch 14G4. […] These riboswitches comprising re-engineered aptamer sequences also lead to significant enhancements of target gene expression in other cells types, including alpha mouse liver 12 (AML12), C2C12 (murine myoblast cell line), and adult retinal pigment epithelial cell line-19 (ARPE-19) (see FIG. 4B).

[8] = 50 mg/kg IP single dose, six hours after dosing
[9] = 50 mg/kg and 100 mg/kg IP doses
[10] = 200 mg/kg and 400 mg/kg IP doses

Molecule: C/C(=C(\CCO)SCOC(=O)c1ccccc1)N(C=O)Cc1cnc(C)nc1N [Compound M21, (Z)-((2-(N-((4-Amino-2-methylpyrimidin-5-yl)methyl)formamido)-5-hydroxypent-2-en-3-yl)thio)methyl benzoate]
- effect on luciferase expression from Luci-15D10 (riboswitch 15D10 [1]): increased
- fold induction at 50 µM (riboswitch 15D10 [1]): 618
- relative potency in inducing luciferase expression (riboswitch 15D10 [2]): more potent than fursultiamine
- fold induction at 50 µM (riboswitch 15D10 [2]): 229
- activity in increasing riboswitch 15D10-regulated luciferase expression (riboswitch 15D10 [3]): equivalent potency to fursultaimine

Molecule: C/C(=C(\CCOC(=O)c1ccccc1)SS/C(CCOC(=O)c1ccccc1)=C(/C)N(C=O)Cc1cnc(C)nc1N)N(C=O)Cc1cnc(C)nc1N [bisbentiamine]
- effect on luciferase expression, riboswitch TPPz [4]: weak or no effects on luciferase expression
- effect on luciferase expression, riboswitch TPPm [5]: weak or no effects on luciferase expression

Molecule: C/C(=C(\CCO)SCOC(=O)C12CC3CC(CC(C3)C1)C2)N(C=O)Cc1cnc(C)nc1N [Compound M19, (((Z)-2-(N-((4-Amino-2-methylpyrimidin-5-yl)methyl)formamido)-5-hydroxypent-2-en-3-yl)thio)methyl (3r,5r,7r)-adamantane-1-carboxylate]
- fold increase in luciferase expression (riboswitch 15D10 [1]; 12.5 μM): 168.7 fold
- effect on luciferase expression from Luci-15D10 (riboswitch 15D10 [1]): increased
- relative potency in inducing luciferase expression (riboswitch 15D10 [1]; compared with fursultiamine or within Formula V/VI groups): more potent
- fold induction at 50 µM (riboswitch 15D10 [1]): 676
- relative potency in inducing luciferase expression (riboswitch 15D10 [2]): more potent than fursultiamine
- fold induction at 50 µM (riboswitch 15D10 [2]): 330
- activity in increasing riboswitch 15D10-regulated luciferase expression (riboswitch 15D10 [3]): equivalent potency to fursultaimine

Molecule: CC(=C(CCOC(=O)C(C)C)SSC(CCOC(=O)C(C)C)=C(C)N(C=O)Cc1cnc(C)nc1N)N(C=O)Cc1cnc(C)nc1N (stereo in doubt) [sulbutiamine]
- effect on luciferase expression, riboswitch TPPz [4]: weak or no effects on luciferase expression
- effect on luciferase expression, riboswitch TPPm [5]: weak or no effects on luciferase expression

Molecule: C/C(=C(\CCO)SCOC(=O)C(C)(C)C)N(C=O)Cc1cnc(C)nc1N [Compound M10, (Z)-((2-(N-((4-Amino-2-methylpyrimidin-5-yl)methyl)formamido)-5-hydroxypent-2-en-3-yl)thio)methyl pivalate]
- effect on luciferase expression from Luci-15D10 (riboswitch 15D10 [1]): increased
- relative potency in inducing luciferase expression (riboswitch 15D10 [2]): more potent than fursultiamine
- activity in increasing riboswitch 15D10-regulated luciferase expression (riboswitch 15D10 [3]): equivalent potency to fursultaimine

Molecule: CCCSS/C(CCO)=C(/C)N(C=O)Cc1cnc(C)nc1N [prosultiamine]
- luciferase regulation in response to ligand, riboswitch 15D10 (riboswitch 15D10 [2]): robustly regulate luciferase expression
- effect on luciferase expression, riboswitch TPPz [4]: induce luciferase expression
- effect on luciferase expression, riboswitch TPPm [5]: induce luciferase expression
- luciferase regulation in response to ligand, riboswitch 15A5 [6]: robustly regulate luciferase expression
- luciferase activity in mice, riboswitch 3H4 (riboswitch 3H4; [8]): significantly increased
- time at which induced luciferase activity attenuated to pre-treatment level (riboswitch 3H4; [9]): 24 h
- time induced luciferase activity remained (riboswitch 3H4; [10]): ≥ 48 h
- luciferase activity in mice, riboswitch 6B4 (riboswitch 6B4; [8]): significantly increased
- time at which induced luciferase activity attenuated to pre-treatment level (riboswitch 6B4; [9]): 24 h
- time induced luciferase activity remained (riboswitch 6B4; [10]): ≥ 48 h

Molecule: Cc1ncc(C[n+]2csc(CCO[P@](=O)(O)OP(=O)(O)O)c2C)c(N)n1 [TPP, thiamine pyrophosphate]
- luciferase regulation in response to ligand, riboswitch 15D10 (riboswitch 15D10 [2]): respond very poorly
- effect on luciferase expression, riboswitch TPPz [4]: regulate luciferase expression
- effect on luciferase expression, riboswitch TPPm [5]: regulate luciferase expression
- luciferase regulation in response to ligand, riboswitch 15A5 [6]: respond very poorly

Molecule: Cc1ncc(C[n+]2csc(CCCl)c2C)c(N)n1.Cl.[Cl-] [beclotiamine hydrochloride]
- effect on luciferase expression, riboswitch TPPz [4]: weak or no effects on luciferase expression
- effect on luciferase expression, riboswitch TPPm [5]: weak or no effects on luciferase expression

B1: 1D10: re-engineered aptamer, encoding sequence SEQ ID NO:8 (nucleic acid)
DNA: ACAGGGGTCCGGCCTTTTCATTTGGCGCCGGTGAGATTATACCCTTTGAACCTGTTTACGGATAATGCCGCCGCAGGGAGT
modifications: expressed or natural sequence
- fursultiamine-dependent induction compared to parent construct 14G4 [7]: increase in fursultiamine-dependent induction

B2: 4H2: re-engineered aptamer, encoding sequence SEQ ID NO:15 (nucleic acid)
DNA: ACAGGGGTCCGGCCTTTTCATTTGGCGCCGGTGAGAGCACACCCTTCGGACCTGTTTACGGATAATGCCGCCGCAGGGAGT
modifications: expressed or natural sequence
- fursultiamine-dependent induction compared to parent construct 14G4 [7]: increase in fursultiamine-dependent induction

B3: 6B4: re-engineered aptamer, encoding sequence SEQ ID NO:14 (nucleic acid)
DNA: ACAGGGGTCCGGCCTTTTCATTTGGCGCCGGTGAGAGCACACCCTTGTGACCTGTTTACGGATAATGCCGCCGCAGGGAGT
modifications: expressed or natural sequence
- fursultiamine-dependent induction compared to parent construct 14G4 [7]: increase in fursultiamine-dependent induction

B4: 3H4: re-engineered aptamer, encoding sequence SEQ ID NO:9 (nucleic acid)
DNA: ACAGGGGTCCGGCCTTTTCATTTGGCGCCGGTGAGAGCACACCCTTTGAACCTGTTCACGGATAATGCCGCTGCAGGGAGT
modifications: expressed or natural sequence
- fursultiamine-dependent induction compared to parent construct 14G4 [7]: increase in fursultiamine-dependent induction

B5: 6G12: re-engineered aptamer, encoding sequence SEQ ID NO:17 (nucleic acid)
DNA: ACAGGGGTCCGGCCTTTTCATTTGGCGCCGGTGAGAGCACACCCTTTGGACCTGTTTACGGATAATGCCGCCGCAGGGAGT
modifications: expressed or natural sequence
- fursultiamine-dependent induction compared to parent construct 14G4 [7]: increase in fursultiamine-dependent induction

B6: 6C4: re-engineered aptamer, encoding sequence SEQ ID NO:16 (nucleic acid)
DNA: ACGGGGGTCCGGCCTTTTCATTTGGCGCCGGTGAGAGCACACCCTTCGAACCTGTTTACGGATAATGCCGCCGCAGGGAGT
modifications: expressed or natural sequence
- fursultiamine-dependent induction compared to parent construct 14G4 [7]: increase in fursultiamine-dependent induction
